Consider 8 compounds from PubChem BioAssay (NCI).

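Each compound was tested at five concentrations against cells in 96-well plates for 48 hours. Here, GI50 denotes the concentration required for 50% inhibition of growth. TGI: concentration producing complete growth inhibition.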 Bounds are passed on as bounds.

Common to all, as to experiment: inhibition of tumour cell growth, NCI panel, 48 h
Test [1] has as its system OVCAR-8 ovarian.
In test [2] the test system is A498 renal.
Test [3] has as its system SNB-19 CNS.
The subject of test [4] is HT29 colon.
Test [5] concerns HOP-62 NSCLC.
Test [6] has as its system IGROV1 ovarian.
Test [7] deals with KM12 colon.
Test [8] concerns NCI-H460 lung.
The test system of test [9] is MOLT-4 leukemia.
In test [10] the test system is NCI-H522 lung.

Regarding `CC1SC2(CCCCC2)N(NC(=O)c2[nH]c3ccc(Br)cc3c2-c2ccccc2)C1=O` (configuration not stated), the GI50 is 17 µM in [1]; more than 100 µM in test [2]; 40.8 µM in test [3]; 8.1 µM in test [4]; 37 µM in test [5]; 4.02 µM in [6]. Besides, the GI50 was 16.1 µM in [7], 48.2 µM in test [8], 3.95 µM in [9] and 6.78 µM in [10]. Moreover, the TGI in [1] was 53.8 µM; in [2], more than 100 µM; in [3] it was more than 100 µM; in test [4], more than 100 µM; in test [5] it was more than 100 µM; in [6] it was 28.4 µM. For the same compound, the TGI in test [7], in [8], in test [9] and in test [10] was more than 100 µM in each case.

On to `C/C(=N\NC(=S)N1CCCCCC1)c1cccc2cccnc12`, for which the TGI in test [1] is more than 100 µM; in [2], 54.9 µM; in [3] it was more than 44.2 µM; in test [4], 19.1 µM; in [5], more than 70.7 µM; in test [6] it was more than 94.1 µM. In addition, the TGI in test [7] was more than 87.4 µM; in [8] it was more than 100 µM; in test [9] it was more than 100 µM; in [10], more than 100 µM.

On to `CC(=O)O[C@H]1CC[C@@]2(C)C(=C/C(=N/OCCN3CCCC3)[C@H]3[C@@H]4CC[C@H](OC(C)=O)[C@@]4(C)CC[C@@H]32)C1`, for which the GI50 in test [1] is more than 100 µM; in test [2], 76.7 µM; in test [3] it was 69.1 µM; in [4], 12.5 µM; in [5], 29.2 µM; in test [6], 31.4 µM. Moreover, the GI50 in test [7] was 40.7 µM; in test [8], 24.8 µM; in test [9], 29.6 µM; in test [10], 47.5 µM. In addition, the TGI in test [1], in test [2], in test [3], in test [4], in test [5] and in [6] was more than 100 µM in each case. In addition, the TGI is more than 100 µM in test [7], 52.1 µM in test [8], 84.3 µM in [9] and more than 100 µM in test [10].

For the compound `Cn1cc(C2=C(Nc3ccccc3)C(=O)NC2=O)c2ccccc21`, the GI50 in test [1] is more than 25 µM; in [2], more than 25 µM; in [3] it was more than 25 µM; in test [4], 14.7 µM; in [5] it was more than 25 µM; in test [6] it was more than 25 µM. Moreover, the GI50 in test [7] is 17 µM; in [8] it was more than 25 µM; in test [9] it was more than 23.1 µM; in test [10] it was 24.6 µM. For the same compound, the TGI in test [1], in test [2], in [3], in [4], in [5] and in [6] was more than 25 µM throughout. Further, the TGI in [7], in [8], in test [9] and in test [10] was more than 25 µM throughout.

Consider `COc1cc2c(c(OC)c1OC)-c1ccc(N=NC(N)=S)c(=O)cc1[C@@H](NC(C)=O)CC2`, for which the GI50 in [1] is 2.19 µM; in test [2] it was 0.477 µM; in [3], 0.578 µM; in test [4] it was 0.388 µM; in test [5], 1.8 µM; in [6], 0.482 µM. For the same compound, the GI50 in [7] was 0.394 µM; in [8] it was 0.418 µM; in test [9], 1.3 µM; in test [10], 0.354 µM. For the same compound, the TGI is more than 100 µM in test [1]; 3.15 µM in test [2]; more than 100 µM in test [3]; more than 100 µM in test [4]; more than 100 µM in test [5]; 12.2 µM in test [8]. The TGI in [9] is more than 100 µM.

Take `C[C@@H](CO)NC(=O)c1cc(-c2ccc(Cl)cc2)nn(-c2cnn(C)c2)c1=O`: the GI50 is 26.3 µM in [1]; 3.01 µM in [2]; 26.4 µM in test [3]; 19.4 µM in test [4]; 41.8 µM in [5]; 20.2 µM in test [6]. Further, the GI50 in test [7] is 59.9 µM; in test [8], 30 µM; in test [9], 15.9 µM; in [10], 14.4 µM. Moreover, the TGI in test [1] is more than 100 µM; in [2], 62.3 µM; in [3], more than 100 µM; in test [4], 76.7 µM; in test [5], more than 100 µM; in test [6] it was 82.1 µM. Further, the TGI is more than 100 µM in [7], more than 100 µM in test [8], 91.5 µM in test [9] and 35.7 µM in test [10].

As for `Cc1cccc2c3c(sc12)C(c1ccc(F)cc1)C(C#N)=C(N)O3` (configuration not stated), the GI50 in test [1] is 0.128 µM; in [2] it was 0.0192 µM; in [3] it was 0.081 µM; in test [4] it was 0.313 µM; in test [5], 0.127 µM; in test [6], 0.0744 µM. For the same compound, the GI50 was 0.064 µM in [7], 0.0537 µM in test [8], 0.137 µM in [9] and 0.0353 µM in test [10]. Also, the TGI in test [1] amounted to 14.2 µM; in [2] it was 0.318 µM; in test [3], 12.2 µM; in [4], 8.4 µM; in test [5], 12.9 µM; in test [6] it was 11.2 µM. For the same compound, the TGI in [7] is 11.1 µM; in test [8] it was 2.52 µM; in [9], 26.6 µM; in [10], 1.49 µM.

For `CCCCCCCCCCCc1c(O)c(=O)c2c(oc3c(=O)c(CCCCCCCCCCC)c(O)c(=O)c3n2-c2ccc(N(C)C)cc2)c1=O`, the TGI in test [1] is 51.5 µM; in test [2] it was 36.9 µM; in [3], 58.9 µM; in test [4] it was 46.8 µM; in [5] it was 45.9 µM; in [6], 48.1 µM. Further, the TGI in test [7] is 26.8 µM; in test [8], 36.1 µM; in [9], more than 100 µM; in test [10] it was more than 100 µM.
